# Experimental data from ChEMBL document CHEMBL3885861, “Open TG-GATES”.
# Species: Rattus norvegicus
# Test: Open TG-GATES - Regimen: Daily Repeat
# Format: toxicity, organism-based, Sprague-Dawley
# Design: regimen Daily Repeat, gender Male, age 6 weeks
# Settings: in vivo, po, 100 mg/kg, route gavage, dose level High; for Bas / Eos / Fbg / Hb / Ht / MCH / MCHC / MCV / Mono / Neu / PT / Plat / RBC / Ret / WBC / APTT / Lym: tissue Blood
# [1] = 72 h, tissue Kidney, time 3 day
# [2] = 72 h, tissue Plasma, time 3 day
compound,measurement,setting,value
CC(=O)N1CCN(c2ccc(OCC3COC(Cn4ccnc4)(c4ccc(Cl)cc4Cl)O3)cc2)CC1 (stereo not drawn) [KETOCONAZOLE],Bas,"72 h, time 3 day",0%
same,Eos,"72 h, time 3 day",0.8%
same,Fbg,"72 h, time 3 day",321 mg/dL
same,Hb,"72 h, time 3 day",13.3 g/dL
same,Ht,"72 h, time 3 day",39.8%
same,MCH,"72 h, time 3 day",20.9 pg
same,MCHC,"72 h, time 3 day",33.5%
same,MCV,"72 h, time 3 day",62.4 fL
same,Mono,"72 h, time 3 day",2.8%
same,Neu,"72 h, time 3 day",16.2%
same,PT,"72 h, time 3 day",16.2 s
same,Plat,"72 h, time 3 day",128.4 x10_4/uL
same,RBC,"72 h, time 3 day",639 x10_4/ul
same,Ret,"72 h, time 3 day",5.2%
same,WBC,"72 h, time 3 day",83.5 x10_2/uL
same,KIDNEY_L,[1],1.1 g
same,KIDNEY_R,[1],1 g
same,KIDNEY_TOTAL,[1],2.1 g
same,LIVER,"72 h, tissue Liver, time 3 day",12.1 g
same,ALP,[2],1481 IU/L
same,AST,[2],63.8 IU/L
same,BUN,[2],19.2 mg/dL
same,CRE,[2],0.2 mg/dL
same,Ca,[2],10.8 mg/dL
same,Cl,[2],105.6 meq/L
same,DBIL,[2],0 mg/dL
same,GLC,[2],179.6 mg/dL
same,IP,[2],7 mg/dL
same,LDH,[2],261.8 IU/L
same,Na,[2],141 meq/L
same,PL,[2],133.6 mg/dL
same,RALB,[2],3 g/dL
same,TBIL,[2],0.004 mg/dL
same,TC,[2],72.4 mg/dL
same,TG,[2],73.2 mg/dL
same,TP,[2],5.8 g/dL
same,gamma-GTP,[2],1.6 IU/L
same,TERMINAL_BW,"[…], time 7 day",256.9 g
same,TERMINAL_BW,"[…], time 14 day",298.5 g
same,TERMINAL_BW,"[…], time 28 day",353.3 g
same,APTT,"[…], time 7 day",20.6 s
same,Bas,"[…], time 7 day",0%
same,Eos,"[…], time 7 day",0.4%
same,Fbg,"[…], time 7 day",302.4 mg/dL
same,Hb,"[…], time 7 day",12.9 g/dL
same,Ht,"[…], time 7 day",38.5%
same,Lym,"[…], time 7 day",79.4%
same,MCH,"[…], time 7 day",21 pg
same,MCHC,"[…], time 7 day",33.6%
same,MCV,"[…], time 7 day",62.6 fL
same,Mono,"[…], time 7 day",1.2%
same,Neu,"[…], time 7 day",17.6%
same,PT,"[…], time 7 day",16.1 s
same,Plat,"[…], time 7 day",111.5 x10_4/uL
same,RBC,"[…], time 7 day",616.2 x10_4/ul
same,Ret,"[…], time 7 day",5.5%
same,WBC,"[…], time 7 day",106.4 x10_2/uL
same,APTT,"[…], time 14 day",20.9 s
same,Bas,"[…], time 14 day",0%
same,Eos,"[…], time 14 day",0.4%
same,Fbg,"[…], time 14 day",316 mg/dL
same,Hb,"[…], time 14 day",13.9 g/dL
same,Ht,"[…], time 14 day",41.6%
same,Lym,"[…], time 14 day",72.4%
same,MCH,"[…], time 14 day",20.3 pg
same,MCHC,"[…], time 14 day",33.5%
same,MCV,"[…], time 14 day",60.6 fL
same,Mono,"[…], time 14 day",1.4%
same,Neu,"[…], time 14 day",24.6%
same,PT,"[…], time 14 day",16.3 s
same,Plat,"[…], time 14 day",122.8 x10_4/uL
same,RBC,"[…], time 14 day",687.8 x10_4/ul
same,Ret,"[…], time 14 day",4.5%
same,WBC,"[…], time 14 day",85.7 x10_2/uL
same,APTT,"[…], time 28 day",23.2 s
same,Bas,"[…], time 28 day",0%
same,Eos,"[…], time 28 day",1.2%
same,Fbg,"[…], time 28 day",314.2 mg/dL
